ChEMBL document CHEMBL1201862, “PubChem BioAssay data set” (2004)
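Following 48 hours of exposure in 96-well plates, responses at five concentrations were used to interpolate endpoints linearly. The concentration for 50% growth inhibition is given as GI50.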 Active and inactive are the calls of the source. Rule as the data show it: active = GI50 up to about 1.1 µM and inactive = higher.

Key:
Assay in all cases: NCI tumour cell line growth inhibition, 48 h
[1] = system: COLO 205
[2] = system: 786-0
[3] = system: MDA-N
[4] = system: SK-MEL-5
[5] = system: SW-620
[6] = system: UO-31
[7] = system: A498
[8] = system: SNB-19
[9] = system: SF-295
[10] = system: NCI-H23
[11] = system: OVCAR-8
[12] = system: SK-MEL-2
[13] = system: RPMI-8226
[14] = system: OVCAR-4
[15] = system: KM12
[16] = system: A549
[17] = system: NCI-H460
[18] = system: RXF 393
[19] = system: LOX IMVI
[20] = system: HOP-62
[21] = system: CCRF-CEM
[22] = system: MOLT-4
[23] = system: SF-539
[24] = system: Hs-578T
[25] = system: K562
[26] = system: NCI-H522
[27] = system: MDA-MB-435
[28] = system: EKVX
[29] = system: NCI-H226
[30] = system: CAKI-1
[31] = system: MCF7
[32] = system: SK-OV-3
[33] = system: PC-3
[34] = system: UACC-62
[35] = system: HT-29
[36] = system: IGROV-1
[37] = system: SNB-75
[38] = system: Malme-3M
[39] = system: HCT-15
[40] = system: HCT-116
[41] = system: TK-10
[42] = system: SN12C
[43] = system: SK-MEL-28
[44] = system: NCI/ADR-RES
[45] = system: M14
[46] = system: T47D
[47] = system: DU-145
[48] = system: UACC-257
[49] = system: SF-268
[50] = system: U-251
[51] = system: ACHN
[52] = system: BT-549
[53] = system: OVCAR-5
[54] = system: OVCAR-3
[55] = system: MDA-MB-231
[56] = system: HL-60
[57] = system: HCC 2998
[58] = system: SR
[59] = system: HOP-92

Measured: GI50

Cc1n[n+](Cc2ccccc2)c2sc(N)nn12
> 100 µM: [39]
inactive: [1] > 100 µM | [2] > 100 µM | [3] > 100 µM | [4] 39.4 µM | [5] 64.6 µM | [6] > 100 µM | [7] > 100 µM | [8] > 100 µM | [9] > 100 µM | [10] > 100 µM | [11] > 100 µM | [12] > 100 µM | [13] > 100 µM | [14] > 100 µM | [15] > 100 µM | [16] > 100 µM | [17] > 10 µM | [18] > 100 µM | [19] > 100 µM | [20] > 100 µM | [21] 32 µM | [22] 58.9 µM | [23] > 100 µM | [24] > 100 µM | [25] 76.7 µM | [26] 30 µM | [27] > 100 µM | [28] > 100 µM | [29] 74 µM | [30] > 100 µM | [31] > 100 µM | [32] 85.9 µM | [33] > 100 µM | [34] 10.2 µM | [35] 59 µM | [36] > 100 µM | [37] > 100 µM | [38] > 100 µM | [40] 76.4 µM | [41] > 100 µM | [42] > 100 µM | [43] > 100 µM | [44] > 100 µM | [45] > 100 µM | [46] > 100 µM | [47] > 100 µM | [48] > 100 µM | [49] 35.3 µM | [50] > 100 µM | [51] > 100 µM | [52] 38.4 µM | [53] > 100 µM | [54] > 100 µM

Cc1nn(C(=O)Cc2ccccc2)c2c1C(c1ccccc1)SC(=N)N2 (stereo not given)
inactive: [1] > 100 µM | [2] > 100 µM | [55] > 100 µM | [3] > 100 µM | [4] > 100 µM | [5] > 100 µM | [6] > 100 µM | [7] > 100 µM | [8] > 100 µM | [9] > 100 µM | [10] > 100 µM | [11] > 100 µM | [13] > 100 µM | [56] > 100 µM | [15] > 100 µM | [16] > 100 µM | [17] > 100 µM | [19] > 100 µM | [20] > 100 µM | [21] > 100 µM | [22] > 100 µM | [23] > 100 µM | [24] > 100 µM | [25] > 100 µM | [26] > 100 µM | [27] > 100 µM | [28] > 100 µM | [29] > 100 µM | [30] > 100 µM | [31] > 100 µM | [57] > 100 µM | [32] > 100 µM | [33] > 100 µM | [58] > 100 µM | [34] > 100 µM | [35] > 100 µM | [36] > 100 µM | [37] 43.5 µM | [38] > 100 µM | [40] > 100 µM | [41] > 100 µM | [42] > 100 µM | [43] > 100 µM | [45] > 100 µM | [46] > 100 µM | [47] > 100 µM | [48] > 100 µM | [49] > 100 µM | [51] > 100 µM | [52] > 100 µM
> 100 µM: [39]

COc1cc(CNC(=O)[C@H](Cc2ccc(O)cn2)NC(C)=O)cc(OC)c1
> 100 µM: [39]
inactive: [1] > 100 µM | [2] > 100 µM | [3] > 100 µM | [4] 67 µM | [5] > 100 µM | [6] > 100 µM | [7] > 100 µM | [8] > 100 µM | [9] > 100 µM | [10] > 100 µM | [12] > 100 µM | [13] 29.5 µM | [56] 19.5 µM | [14] > 100 µM | [15] > 100 µM | [16] > 100 µM | [17] > 100 µM | [18] > 100 µM | [19] > 100 µM | [20] > 100 µM | [21] > 100 µM | [22] 57.8 µM | [23] > 100 µM | [24] > 100 µM | [25] 83 µM | [26] > 100 µM | [27] > 100 µM | [28] 60 µM | [29] > 100 µM | [30] > 100 µM | [59] 13.2 µM | [31] > 100 µM | [57] > 100 µM | [32] > 100 µM | [33] 99.3 µM | [34] 80.9 µM | [35] 41 µM | [36] 36.3 µM | [38] > 100 µM | [40] 76.2 µM | [41] > 100 µM | [42] > 100 µM | [43] > 100 µM | [44] > 100 µM | [45] 92.5 µM | [46] 75 µM | [47] > 100 µM | [48] 65.6 µM | [49] > 100 µM | [50] > 100 µM | [51] > 100 µM | [52] > 100 µM | [53] > 100 µM | [54] 50.6 µM
